According to ChEMBL document CHEMBL5291721, “A preclinical secondary pharmacology resource illuminates target-adverse drug reaction associations of marketed drugs” (Nat Commun, 2023):

What was measured:
Estrogen receptor = target: T1, Estrogen receptor (Homo sapiens, UniProt P03372)
T1 sequence (P03372 whole entry): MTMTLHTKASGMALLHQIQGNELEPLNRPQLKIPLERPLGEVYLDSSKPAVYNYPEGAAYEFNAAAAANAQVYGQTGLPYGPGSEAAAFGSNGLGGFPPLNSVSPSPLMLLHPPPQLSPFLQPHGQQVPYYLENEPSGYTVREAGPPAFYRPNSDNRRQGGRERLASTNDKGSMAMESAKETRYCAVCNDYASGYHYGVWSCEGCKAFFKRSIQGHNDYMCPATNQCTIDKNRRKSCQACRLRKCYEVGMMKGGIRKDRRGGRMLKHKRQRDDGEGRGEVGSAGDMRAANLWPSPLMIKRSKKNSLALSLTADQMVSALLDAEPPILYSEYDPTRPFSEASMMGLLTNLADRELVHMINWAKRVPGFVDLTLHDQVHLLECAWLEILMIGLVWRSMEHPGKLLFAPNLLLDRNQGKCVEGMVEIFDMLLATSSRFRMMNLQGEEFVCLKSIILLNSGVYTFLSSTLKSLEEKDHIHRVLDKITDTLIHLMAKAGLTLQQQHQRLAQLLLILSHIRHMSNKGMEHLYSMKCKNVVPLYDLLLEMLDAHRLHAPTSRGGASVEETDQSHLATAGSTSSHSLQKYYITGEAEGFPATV

[1] = target: Gamma-aminobutyric acid receptor subunit alpha-1 (Rattus norvegicus, UniProt P62813)
Gamma-aminobutyric acid receptor subunit alpha-1, sequence (P62813 whole entry): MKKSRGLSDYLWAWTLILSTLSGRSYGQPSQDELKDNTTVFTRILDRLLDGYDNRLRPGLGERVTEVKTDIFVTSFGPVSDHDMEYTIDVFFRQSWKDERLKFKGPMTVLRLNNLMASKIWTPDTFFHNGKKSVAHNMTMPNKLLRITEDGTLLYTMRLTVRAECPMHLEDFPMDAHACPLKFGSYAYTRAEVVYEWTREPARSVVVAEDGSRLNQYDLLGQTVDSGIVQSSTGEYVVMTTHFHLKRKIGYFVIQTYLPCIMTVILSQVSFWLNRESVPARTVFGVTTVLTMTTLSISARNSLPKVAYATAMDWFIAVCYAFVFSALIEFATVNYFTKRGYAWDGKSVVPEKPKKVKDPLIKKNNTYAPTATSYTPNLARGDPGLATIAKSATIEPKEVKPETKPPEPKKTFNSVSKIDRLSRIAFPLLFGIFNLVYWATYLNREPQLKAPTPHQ

[2] = target: Sodium-dependent serotonin transporter (Homo sapiens, UniProt P31645)
Sodium-dependent serotonin transporter, sequence (P31645 whole entry): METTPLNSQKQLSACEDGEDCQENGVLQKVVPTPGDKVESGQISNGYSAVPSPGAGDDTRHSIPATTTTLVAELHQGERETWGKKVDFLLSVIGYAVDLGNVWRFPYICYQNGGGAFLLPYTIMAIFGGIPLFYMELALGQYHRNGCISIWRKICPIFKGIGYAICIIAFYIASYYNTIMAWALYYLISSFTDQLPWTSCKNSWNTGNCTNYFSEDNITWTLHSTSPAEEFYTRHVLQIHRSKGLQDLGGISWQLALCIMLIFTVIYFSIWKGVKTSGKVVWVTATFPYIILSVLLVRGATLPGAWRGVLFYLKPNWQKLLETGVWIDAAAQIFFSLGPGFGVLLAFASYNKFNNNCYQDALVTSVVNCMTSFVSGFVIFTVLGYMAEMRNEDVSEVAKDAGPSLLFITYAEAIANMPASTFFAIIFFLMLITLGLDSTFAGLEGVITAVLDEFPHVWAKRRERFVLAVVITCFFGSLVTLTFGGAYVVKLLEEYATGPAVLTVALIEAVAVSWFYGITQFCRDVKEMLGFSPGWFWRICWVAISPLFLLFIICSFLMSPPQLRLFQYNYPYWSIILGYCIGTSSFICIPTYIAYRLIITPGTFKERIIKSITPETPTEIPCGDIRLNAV

Mu-type opioid receptor = Mu-type opioid receptor (Homo sapiens, UniProt P35372)
Mu-type opioid receptor, sequence (P35372 whole entry): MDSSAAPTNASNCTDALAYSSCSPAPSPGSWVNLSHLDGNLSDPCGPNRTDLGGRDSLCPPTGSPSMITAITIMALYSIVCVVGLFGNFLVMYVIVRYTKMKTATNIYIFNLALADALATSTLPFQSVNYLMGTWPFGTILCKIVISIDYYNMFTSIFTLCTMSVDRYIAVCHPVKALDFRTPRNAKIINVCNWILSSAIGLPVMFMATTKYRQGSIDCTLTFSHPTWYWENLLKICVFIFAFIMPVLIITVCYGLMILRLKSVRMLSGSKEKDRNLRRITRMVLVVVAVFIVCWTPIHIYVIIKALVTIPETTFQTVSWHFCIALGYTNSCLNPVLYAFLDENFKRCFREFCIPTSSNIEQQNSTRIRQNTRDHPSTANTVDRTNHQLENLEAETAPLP

[3] = target: T2, Amine oxidase [flavin-containing] A (Homo sapiens, UniProt P21397); type: functional
T2 sequence (P21397 whole entry): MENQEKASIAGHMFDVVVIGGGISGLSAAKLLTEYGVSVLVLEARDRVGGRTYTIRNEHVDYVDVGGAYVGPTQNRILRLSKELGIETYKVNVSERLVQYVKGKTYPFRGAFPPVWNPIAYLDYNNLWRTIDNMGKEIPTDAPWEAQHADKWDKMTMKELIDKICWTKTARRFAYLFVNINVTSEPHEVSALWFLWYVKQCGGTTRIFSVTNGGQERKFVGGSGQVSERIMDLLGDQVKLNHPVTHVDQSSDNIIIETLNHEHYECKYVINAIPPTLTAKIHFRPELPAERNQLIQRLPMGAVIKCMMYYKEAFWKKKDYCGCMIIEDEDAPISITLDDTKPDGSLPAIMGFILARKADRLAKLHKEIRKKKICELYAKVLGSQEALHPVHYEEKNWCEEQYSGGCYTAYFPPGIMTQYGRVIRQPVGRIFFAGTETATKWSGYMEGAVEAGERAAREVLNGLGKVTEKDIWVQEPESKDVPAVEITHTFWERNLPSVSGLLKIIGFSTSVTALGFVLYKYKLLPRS

D(3) dopamine receptor = D(3) dopamine receptor (Homo sapiens, UniProt P35462)
D(3) dopamine receptor, sequence (P35462 whole entry): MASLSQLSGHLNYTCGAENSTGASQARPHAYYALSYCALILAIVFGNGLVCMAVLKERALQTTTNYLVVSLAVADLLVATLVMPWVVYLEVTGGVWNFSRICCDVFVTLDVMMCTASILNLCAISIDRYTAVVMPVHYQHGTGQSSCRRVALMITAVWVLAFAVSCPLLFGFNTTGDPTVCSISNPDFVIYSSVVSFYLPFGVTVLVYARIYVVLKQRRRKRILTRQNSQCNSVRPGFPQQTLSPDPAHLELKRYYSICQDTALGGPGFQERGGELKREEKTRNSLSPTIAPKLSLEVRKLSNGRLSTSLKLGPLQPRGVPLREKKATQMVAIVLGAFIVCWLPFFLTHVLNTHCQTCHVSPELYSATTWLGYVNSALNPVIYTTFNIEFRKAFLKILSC

Thromboxane A2 receptor = target: T3, Thromboxane A2 receptor (Homo sapiens, UniProt P21731)
T3 sequence (P21731 whole entry): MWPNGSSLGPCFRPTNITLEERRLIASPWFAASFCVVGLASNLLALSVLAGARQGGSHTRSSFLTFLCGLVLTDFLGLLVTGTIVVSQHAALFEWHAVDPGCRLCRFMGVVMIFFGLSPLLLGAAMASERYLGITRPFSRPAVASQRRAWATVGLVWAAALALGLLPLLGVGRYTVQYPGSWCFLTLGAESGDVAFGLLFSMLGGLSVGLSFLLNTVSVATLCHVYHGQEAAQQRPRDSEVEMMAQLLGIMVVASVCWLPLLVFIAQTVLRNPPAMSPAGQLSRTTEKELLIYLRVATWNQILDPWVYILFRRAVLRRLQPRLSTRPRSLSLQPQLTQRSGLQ

[4] = target: T4, Prostaglandin G/H synthase 1 (Rattus norvegicus, UniProt Q63921); type: functional
T4 sequence (Q63921 whole entry): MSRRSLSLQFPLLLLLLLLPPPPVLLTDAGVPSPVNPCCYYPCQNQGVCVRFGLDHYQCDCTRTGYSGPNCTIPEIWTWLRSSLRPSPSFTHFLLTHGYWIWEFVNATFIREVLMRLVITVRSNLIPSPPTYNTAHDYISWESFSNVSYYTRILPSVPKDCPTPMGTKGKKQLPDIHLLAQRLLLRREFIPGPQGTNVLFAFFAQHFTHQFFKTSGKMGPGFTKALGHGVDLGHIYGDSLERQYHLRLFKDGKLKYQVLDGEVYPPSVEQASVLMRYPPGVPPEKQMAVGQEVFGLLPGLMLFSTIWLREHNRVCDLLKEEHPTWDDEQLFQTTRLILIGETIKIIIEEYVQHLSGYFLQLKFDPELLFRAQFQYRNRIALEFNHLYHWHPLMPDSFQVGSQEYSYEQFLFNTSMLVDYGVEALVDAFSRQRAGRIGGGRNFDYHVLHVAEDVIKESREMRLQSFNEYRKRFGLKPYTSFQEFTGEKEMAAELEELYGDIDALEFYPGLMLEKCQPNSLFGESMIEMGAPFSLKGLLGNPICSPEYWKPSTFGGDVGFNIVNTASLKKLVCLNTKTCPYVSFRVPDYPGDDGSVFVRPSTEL

[5] = target: Beta-1 adrenergic receptor (Homo sapiens, UniProt P08588); type: functional
Beta-1 adrenergic receptor, sequence (P08588 whole entry): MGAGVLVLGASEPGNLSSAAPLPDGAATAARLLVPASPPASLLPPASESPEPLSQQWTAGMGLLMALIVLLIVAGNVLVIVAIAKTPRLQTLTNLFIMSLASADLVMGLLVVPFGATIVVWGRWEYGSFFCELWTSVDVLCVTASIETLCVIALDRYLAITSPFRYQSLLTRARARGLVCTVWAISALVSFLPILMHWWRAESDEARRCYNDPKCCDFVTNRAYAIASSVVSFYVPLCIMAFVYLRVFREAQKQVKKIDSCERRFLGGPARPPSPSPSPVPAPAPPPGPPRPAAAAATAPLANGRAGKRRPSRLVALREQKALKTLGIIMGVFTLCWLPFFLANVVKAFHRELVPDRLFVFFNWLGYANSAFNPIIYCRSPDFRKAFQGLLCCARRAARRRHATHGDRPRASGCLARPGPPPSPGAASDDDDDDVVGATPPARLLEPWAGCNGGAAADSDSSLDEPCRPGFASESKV

[6] = target: Kappa-type opioid receptor (Homo sapiens, UniProt P41145)
Kappa-type opioid receptor, sequence (P41145 whole entry): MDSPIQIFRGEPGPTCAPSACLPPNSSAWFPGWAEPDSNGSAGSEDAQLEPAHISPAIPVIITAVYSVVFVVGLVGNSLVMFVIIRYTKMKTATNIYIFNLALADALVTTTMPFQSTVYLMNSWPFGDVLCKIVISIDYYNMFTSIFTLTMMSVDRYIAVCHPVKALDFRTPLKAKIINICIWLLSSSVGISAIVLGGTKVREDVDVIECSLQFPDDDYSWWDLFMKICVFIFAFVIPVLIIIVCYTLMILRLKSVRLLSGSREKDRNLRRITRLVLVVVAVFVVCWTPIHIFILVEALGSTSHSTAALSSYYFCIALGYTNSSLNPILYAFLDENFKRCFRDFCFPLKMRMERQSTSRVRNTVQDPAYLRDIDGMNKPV

Cannabinoid receptor 1 = Cannabinoid receptor 1 (Homo sapiens, UniProt P21554); type: functional, cell-based
Cannabinoid receptor 1, sequence (P21554 whole entry): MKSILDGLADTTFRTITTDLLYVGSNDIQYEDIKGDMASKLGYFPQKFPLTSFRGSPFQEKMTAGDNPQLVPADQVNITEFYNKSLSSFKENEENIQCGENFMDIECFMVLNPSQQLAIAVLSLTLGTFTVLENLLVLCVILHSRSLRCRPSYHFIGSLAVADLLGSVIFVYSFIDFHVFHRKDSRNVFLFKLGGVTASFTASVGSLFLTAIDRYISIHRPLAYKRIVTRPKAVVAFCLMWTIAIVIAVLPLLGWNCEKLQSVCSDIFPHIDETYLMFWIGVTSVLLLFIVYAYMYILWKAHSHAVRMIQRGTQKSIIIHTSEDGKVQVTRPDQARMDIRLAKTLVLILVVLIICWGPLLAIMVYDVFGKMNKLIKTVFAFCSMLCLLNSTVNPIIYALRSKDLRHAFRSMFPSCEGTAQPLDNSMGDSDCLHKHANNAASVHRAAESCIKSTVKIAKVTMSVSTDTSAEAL

[7] = target: T5, Cholecystokinin receptor type A (Homo sapiens, UniProt P32238)
T5 sequence (P32238 whole entry): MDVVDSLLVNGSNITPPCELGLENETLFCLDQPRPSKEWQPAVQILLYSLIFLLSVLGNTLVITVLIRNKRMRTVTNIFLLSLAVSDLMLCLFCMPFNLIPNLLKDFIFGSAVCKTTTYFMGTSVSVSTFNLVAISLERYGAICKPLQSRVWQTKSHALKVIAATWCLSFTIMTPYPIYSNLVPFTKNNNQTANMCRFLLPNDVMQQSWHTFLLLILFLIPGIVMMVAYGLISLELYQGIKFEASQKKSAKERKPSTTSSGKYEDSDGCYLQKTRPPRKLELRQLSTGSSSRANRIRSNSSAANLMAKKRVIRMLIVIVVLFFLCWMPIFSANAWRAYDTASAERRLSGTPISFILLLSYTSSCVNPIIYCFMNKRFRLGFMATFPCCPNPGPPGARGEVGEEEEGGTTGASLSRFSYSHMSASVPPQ

Vasopressin V2 receptor = Vasopressin V2 receptor (Homo sapiens, UniProt P30518)
Vasopressin V2 receptor, sequence (P30518 whole entry): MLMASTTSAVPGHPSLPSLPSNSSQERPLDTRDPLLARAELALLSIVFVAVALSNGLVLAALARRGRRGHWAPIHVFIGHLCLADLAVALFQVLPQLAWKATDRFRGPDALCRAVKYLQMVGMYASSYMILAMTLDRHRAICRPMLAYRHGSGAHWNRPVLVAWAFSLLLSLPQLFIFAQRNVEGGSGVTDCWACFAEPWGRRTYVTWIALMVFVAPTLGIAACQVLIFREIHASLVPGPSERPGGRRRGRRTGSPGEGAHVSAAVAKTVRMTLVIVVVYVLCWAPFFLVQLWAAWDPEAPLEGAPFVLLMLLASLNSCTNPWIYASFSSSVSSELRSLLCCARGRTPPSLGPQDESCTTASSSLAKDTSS
Note: assay procedure not described here.

| SMILES | AC50 (Estrogen receptor) [µM] | AC50 [2] [µM] | AC50 (Mu-type opioid receptor) [µM] | AC50 [3] [µM] | AC50 (D(3) dopamine receptor) [µM] | AC50 (Thromboxane A2 receptor) [µM] | AC50 [4] [µM] | AC50 [5] [µM] | AC50 [6] [µM] | AC50 (Cannabinoid receptor 1) [µM] | AC50 [7] [µM] | AC50 (Vasopressin V2 receptor) [µM] | other results |
| --- | --- | --- | --- | --- | --- | --- | --- | --- | --- | --- | --- | --- | --- |
| O=C(O)COc1ccc(C(=O)c2cccs2)c(Cl)c1Cl | > 30 | – | – | – | – | – | – | – | – | – | – | – | – |
| N#Cc1ccc2c(c1)N(CCCN1CCC(O)CC1)c1ccccc1S2 [PERICIAZINE] | > 30 | – | – | – | – | – | – | – | – | – | – | – | AC50 [1]: 29.8 µM |
| CCOC(=O)C1=C[C@@H](OC(CC)CC)[C@H](NC(C)=O)[C@@H](N)C1 [OSELTAMIVIR] | – | > 30 | – | – | – | – | – | – | – | – | – | – | – |
| Cc1onc(-c2ccccc2)c1C(=O)N[C@@H]1C(=O)N2[C@@H]1SC(C)(C)[C@@H]2C(=O)O [OXACILLIN] | > 30 | > 30 | – | – | – | – | – | – | – | – | – | – | – |
| CC(CN1CC(=O)NC(=O)C1)N1CC(=O)NC(=O)C1 (stereo not drawn) [RAZOXANE] | > 30 | > 30 | – | – | – | – | – | – | – | – | – | – | – |
| CC(C)OC(=O)CCC/C=C\C[C@@H]1[C@@H](/C=C/C(F)(F)COc2ccccc2)[C@H](O)C[C@@H]1O [TAFLUPROST] | > 30 | > 30 | – | – | – | – | – | – | – | – | – | – | – |
| [H]/N=C(\N/C(=N/[H])Nc1ccc(Cl)cc1)NC(C)C [PROGUANIL] | > 30 | 22.8 | – | – | – | – | – | – | – | – | – | – | – |
| Cc1ccccc1C(=O)Nc1ccc(C(=O)N2CCCC(N(C)C)c3ccccc32)cc1 (stereo not drawn) [MOZAVAPTAN] | > 30 | 1.26 | – | – | – | – | – | – | – | – | – | – | – |
| C[C@@H](NCCCc1cccc(C(F)(F)F)c1)c1cccc2ccccc12 | – | – | 2.5 | > 30 | 1.5 | > 30 | > 30 | 8.8 | > 30 | > 30 | > 30 | 20 | – |
| COc1c2ccoc2cc2oc(=O)ccc12 [BERGAPTEN] | > 30 | > 30 | – | – | – | – | – | – | – | – | – | – | – |
| N[C@@H](CS)C(=O)O [CYSTEINE] | – | > 30 | – | – | – | – | – | – | – | – | – | – | – |
| CC(CCc1ccccc1)NCC(O)c1ccc(O)c(C(N)=O)c1 (stereo not drawn) [LABETALOL] | > 30 | – | – | – | – | – | – | – | – | – | – | – | – |
| C[C@H]1c2cccc(O)c2C(=O)C2=C(O)[C@]3(O)C(=O)C(C(N)=O)=C(O)[C@@H](N(C)C)[C@@H]3[C@@H](O)[C@@H]21 [DOXYCYCLINE] | – | – | > 30 | > 10 | > 10 | > 30 | > 30 | > 10 | > 10 | > 30 | > 30 | > 30 | – |
| CN(C)[C@@H]1C(O)=C(C(N)=O)C(=O)[C@@]2(O)C(O)=C3C(=O)c4c(O)ccc(Cl)c4[C@@](C)(O)[C@H]3C[C@@H]12 [CHLORTETRACYCLINE] | – | – | – | – | – | – | – | – | – | – | – | – | AC50 [1]: > 30 µM |
| CO[C@H]1/C=C/O[C@@]2(C)Oc3c(C)c(O)c4c(O)c(c(/C=N/N5CCN(C)CC5)c(O)c4c3C2=O)NC(=O)/C(C)=C\C=C\[C@H](C)[C@H](O)[C@@H](C)[C@@H](O)[C@@H](C)[C@H](OC(C)=O)[C@@H]1C [RIFAMPIN] | – | – | 8 | > 30 | 11 | 17.4 | > 30 | 28 | > 30 | > 30 | 17.1 | 30 | – |
| C=CC[C@@H]1/C=C(\C)C[C@H](C)C[C@H](OC)[C@H]2O[C@@](O)(C(=O)C(=O)N3CCCC[C@H]3C(=O)O[C@H](/C(C)=C/[C@@H]3CC[C@@H](O)[C@H](OC)C3)[C@H](C)[C@@H](O)CC1=O)[C@H](C)C[C@@H]2OC [TACROLIMUS ANHYDROUS] | – | – | > 30 | > 30 | > 30 | 15.3 | > 30 | > 30 | > 10 | > 30 | > 30 | > 30 | – |
| CN1CCCCC1CCN1c2ccccc2Sc2ccc([S+](C)[O-])cc21 (stereo not drawn) [MESORIDAZINE] | > 10 | > 30 | – | – | – | – | – | – | – | – | – | – | – |
| C[C@]12C=CC(=O)N[C@@H]1CC[C@@H]1[C@@H]2CC[C@]2(C)[C@@H](C(=O)Nc3cc(C(F)(F)F)ccc3C(F)(F)F)CC[C@@H]12 [DUTASTERIDE] | – | – | > 30 | > 10 | > 30 | > 10 | > 10 | > 10 | > 10 | > 30 | > 10 | > 10 | – |
| COc1ccccc1Oc1c(NS(=O)(=O)c2ccc(C(C)(C)C)cc2)nc(-c2ncccn2)nc1OCCO [BOSENTAN] | – | – | > 30 | > 10 | > 30 | > 30 | > 30 | > 30 | > 10 | > 30 | > 30 | > 30 | – |
| OC[C@@H](O)[C@@H](O)[C@H](O)[C@@H](O)CO [SORBITOL] | > 30 | – | – | – | – | – | – | – | – | – | – | – | AC50 [1]: > 30 µM |
| C[C@]1(Cn2ccnn2)[C@H](C(=O)O)N2C(=O)C[C@H]2S1(=O)=O [TAZOBACTAM] | > 30 | – | – | – | – | – | – | – | – | – | – | – | – |
| CN(C)CCc1c[nH]c2ccc(Cn3cncn3)cc12 [RIZATRIPTAN] | – | – | > 10 | > 30 | > 30 | > 30 | > 30 | > 10 | > 30 | > 30 | > 30 | > 30 | – |
| COc1cc2nccc(Oc3ccc(NC(=O)C4(C(=O)Nc5ccc(F)cc5)CC4)cc3)c2cc1OC [CABOZANTINIB] | > 30 | – | > 30 | > 30 | > 30 | – | > 30 | > 30 | – | > 30 | > 30 | – | – |
| C[C@@H]1C[C@H]2[C@@H]3CCC4=CC(=O)C=C[C@]4(C)[C@@]3(Cl)[C@@H](O)C[C@]2(C)[C@@]1(OC(=O)c1ccco1)C(=O)CCl [MOMETASONE FUROATE] | – | > 30 | – | – | – | – | – | – | – | – | – | – | – |
| CC(C)Cc1ccc(C(C)C(=O)O)cc1 (stereo not drawn) [IBUPROFEN] | > 30 | – | > 30 | > 10 | > 30 | > 30 | – | > 10 | > 10 | > 30 | > 30 | > 30 | – |
